The test system of one data set is A549. Description: MTT assay, antiproliferative activity. The settings on record: Homo sapiens, 48 h, ± SD. Type of data set: cell-based. Here is the method: (§1) The in vitro anticancer activities of the prepared compounds against HepG2, Hela, MCF-7, A549, HT-29 and SSC-4 cell lines were evaluated as described in the literature. Target tumor cells were grown to log phase in DMEM medium supplemented with 10% fetal bovine serum. After reaching a dilution of 1 × 10^5 cells Ml^−1 with the medium, 100 μL of the obtained cell suspension was added to each well of 96-well culture plates. Subsequently, incubation was performed at 37 °C in 5% CO2 atmosphere for 12 h before the cytotoxicity assessment. Tested samples at preset concentrations were added to 6 wells with CA-4 being employed as a positive reference. After 48 h exposure period, 25 μL of PBS containing 2.5 mg mL^−1 of MTT (Sigma, USA) was added to each well. After 4 h, the medium was replaced by 150 μL DMSO to dissolve the purple formazan crystals produced. The absorbance at 570 nm of each well was measured with Synergy™ 2 Multi-Mode Microplate Reader. Cell viability (%) was calculated using the following equation: cell viability (%) = (Atreatment/Acontrol) × 100%. The data represented the mean of three independent experiments in triplicate and were expressed as means ± SD.

Another data set deals with HepG2. As to the kind of experiment: MTT assay, antiproliferative activity. The settings on record: Homo sapiens, 48 h, ± SD. Type of data set: cell-based. Here is the method:
as §1
For orientation: Tetrazolium dyes change colour on reduction, which living cells bring about.

Another data set relates to MCF-7. As to the kind of experiment: MTT assay, antiproliferative activity. Type of data set: cell-based. The settings on record: Homo sapiens, MCF7; MCF-7, MTT, 48 h, ± SD. Here is the method: as §1
A further data set deals with SSC-4. As to the kind of experiment: MTT assay, antiproliferative activity. Type of data set: cell-based. The settings on record: Homo sapiens; SSC-4, MTT, 48 h, ± SD. As to the method:
as §1

The test system of another data set is Bovine brain tubulin. As to the kind of experiment: Effects on tubulin polymerization (turbidimetric assembly). Type of data set: biochemical. The settings on record: 10 μM tubulin, 30 °C, 20 min incubation; read-out: Tubulin inhibition IC50. Here is the method: Bovine brain tubulin was purified as described previously. To evaluate the effect of the compounds on tubulin assembly in vitro, compounds of varying concentrations were preincubated with 10 μM tubulin in glutamate buffer at 30 °C and then cooled to 0 °C. After addition of GTP, the mixtures were transferred to 0 °C cuvettes in a recording BioTek Synergy 4 multifunction microplate spectrophotometer and warmed up to 30 °C and the assembly of tubulin was observed turbidimetrically (TU660, USA).

The subject of data set [1] is 293T, Macrophage, and L02. Description: MTT assay on non-cancer cell lines. It is filed as cell-based, human.
Data set [2] concerns interphase microtubules of A549 cells. As to the kind of experiment: Confocal microscopy assay of microtubule morphology. The settings on record: A549, 1.0 μM, 48 h. It is filed as cell-based, human. Here is the method:
After incubating for 48 h, A549 cells were washed with PBS for three times and fixed with 4% paraformaldehyde for 20 min, permeabilized with cold methanol for another 10 min. After that, the cells were blocked with 5% BSA for 1 h. Subsequently, the cells were washed with PBS, and incubated with anti-tubulin antibody in 3% BSA (1:200 Cytoskeleton, Inc.) overnight at 4 °C. After being washed with PBS for three times, each cover slip was added 200 μL of Cy3-labeled goat anti-mouse IgG (H + L) in 3% BSA (1:500, Cytoskeleton, Inc.) and incubated for 1 h at room temperature. At last, A549 cells was stained with 200 μL of DAPI for 5 min and observed under an confocal microscope (Olympus, USA).

For a further data set, the system named is A549 xenograft tumor. Description: In vivo anti-tumor activity, A549 xenograft. The settings on record: for average weight of the excised tumors: control group 1.802 g; for tumor growth reduction versus vehicle at end of observation: intraperitoneal, every other day. On the set-up: species or system BALB/c nude mice. As to the method:
Mice were subcutaneously inoculated with injections of 5.0 × 10^6 cells/nude mice. After 12–14 days, tumor sizes were determined using micrometer calipers, and then nude mice with similar tumor volume (~100 mm^3, eliminate mice with tumors that are too large or too small) were randomly divided them into four groups (with six nude mice/group). […] Both drugs, as well as the vehicle control, were administered every other day for the entire period of observation.
Male BALB/c nude mice, five weeks old and weighing 18–22 g, were supplied by Shanghai Laboratory Animal Limited Company. The mice were raised in air-conditioned rooms under controlled lighting (12 h light-dark cycle at 24 °C) and were fed with standard laboratory food and water ad libitum. Before injection into the mice, the A549 cells were harvested by trypsinization and washed three times with cold serum-free medium and then injected in a total volume of 0.1 mL using a 1 mL latex-free syringe (BD) within 30 min of harvest. Mice were inoculated subcutaneously with A549 cells (5.0 × 10^6) on their shoulders. […] The control group received 0.9% normal saline. Tumor size was measured once every 2 days in two per-pendicular dimensions with Vernier calipers and converted to tumor volume (TV) using the formula: (ab^2)/2, where a and b refer to the longer and shorter dimensions, respectively. The body weight of the animals was measured twice a week to assess toxicity of the treatments at the same time as the tumor dimension measurement and the mortality was monitored daily. After the treatments for eight weeks, the animals were euthanized by cervical dislocation. This study conformed to the Guide for the Care and Use of Laboratory Animals as published by the US National Institutes of Health and was approved by the Institutional Ethics Review Board of Nanjing University.

As a reminder, the IC50 is the point on the concentration scale where inhibition reaches its midpoint.

Take `COc1cc(/C=N/NC(=O)c2cn(Cc3ccccc3)c3ccccc23)cc(OC)c1OC` [Compound 7]: the IC50 in the data set on A549 is 80 ± 10 nM; in the data set with HepG2, 630 ± 120 nM; in the data set with MCF-7, 640 ± 110 nM; in the data set with SSC-4 it was 35600 ± 1910 nM; in the data set on Bovine brain tubulin, 4460 nM. Also, in data set [1], the “cytotoxic effects on three normal human cells (in words)” value is given as “minimal”. The microtubule morphology entry in data set [2] is given as “disorganized interphase microtubules”. Moreover, the “average weight of the excised tumors” value in the data set with A549 xenograft tumor (20 mg/kg group) is listed as 0.951 g; in the data set with A549 xenograft tumor (30 mg/kg group), 0.553 g. In addition, the entries for the “tumor growth reduction versus vehicle at end of observation” value in the data set on A549 xenograft tumor (20 mg/kg) and in the data set on A549 xenograft tumor (30 mg/kg) were 47% and 70%, respectively.
